Source: patent publication US20250002854A1, “METHODS OF GENERATING POPULATIONS OF TUMOUR-INFILTRATING T CELLS” (LYTIX BIOPHARMA AS, priority 2016, published 2025)
Entries after “also recorded” stand apart in the source; their conditions may differ. Square brackets hold non-standard residues; d marks the D form. Ends that are not written are not given here. Dip = N[C@H](C(=O)O)C(c1ccccc1)c1ccccc1

What was measured:
[1] = system: murine B16 melanomas; assay: Murine melanoma model, intratumoural injections of LTX-401; type: in vivo
[2] = system: human A547 cells; assay: TEM of A547 cells, mitochondrial membrane; type: cell-based; details: 10 μg/ml, 60 minutes
[3] = system: A375 cells; assay: Release of ATP (luciferase bioluminescence); type: cell-based, human; details: 5 minutes, different concentrations
Procedure: The supernatant of LTX-315-treated A375 cells was analyzed using an Enliten ATP luciferase assay kit (Promega, USA). Cells were then seeded as with an ROS assay, and treated with LTX-315 in different incubation times, from 1 to 15 minutes with two parallels, which was then conducted three times. Negative controls were untreated A375 cells exposed to serum-free media alone. Samples were diluted at 1:50 and 1:100, and analyzed with a Luminoscan RT luminometer according to the manufacturer's protocol.

[4] = system: Murine B16 melanoma; assay: immunoSEQ TCR repertoire characterisation after intratumoural LTX-315; type: in vivo, mice
Procedure: This study was carried out using an “immunoSEQ™” T cell receptor (TCR) repertoire characterisation platform by Adaptive Biotechnologies™. The platform combines novel multiplex PCR1 with highly optimized primer sets and deep sequencing techniques that exclusively target TCR genes. The immunoSEQ platform enables researchers to analyse the adaptive immune system with exceptional depth and specificity.
Murine B16 melanoma cells were harvested, washed and injected intradermally in ten mice. 8 days after tumour injection, peptide treatment was initiated using single intratumoural injections of LTX-315 (1.0 mg LTX-315/50 μl saline) once or twice in five mice. Vehicle control of saline only (0.9% NaCl in sterile H2O) was administered to the other five mice. Animals were then euthanized on day 15.
Tumour tissue (10 mg) and whole blood (150-200 μl) was taken from each mouse for TCR repertoire characterisation analysis. Blood samples provide information regarding the immune repertoire in the periphery, whilst the tumour samples provide a focused view of the repertoire.
Sequence analysis was carried out by Adaptive Biotechnologies™ at a survey-level resolution with respect to the tissue samples and at a deep-level resolution with respect to the blood samples.
Clonality quantitates the extent of mono-or oligoclonal expansion by measuring the shape of the clone frequency distribution. Values range from 0 to 1, where values approaching 1 indicate a nearly monoclonal population. FIG. 15 provides example distribution curves of populations with a clonality of 0.05 (A) and of 0.32 (B).

[5] = system: rat transformed mesenchymal stem cell-derived sarcoma (rTMSC); assay: FACS analysis of TILs in rat rTMSC sarcoma model; type: in vivo; details: for percentage of T cells / CD8+ cells within the CD3+ T cell population: mean±SD
Procedure: Pre-cultured rat transformed mesenchymal stem cell-derived sarcoma model cells (rTMSCs) were harvested in serum free RPMI-1640 and 200,000 rTMSCs were subcutaneously inoculated in the right flank into PVG rats on day ÷2 and 20,000 rTMSCs in the opposite flank on day 0. Established tumours (25 mm^2 mean tumour size) were injected intralesionally with LTX-315 (dissolved in sterile H2O with 0.9% NaC ) (n=8) or with vehicle (sterile H2O with 0.9% NaCl) (n=6). Treatment doses of LTX-315, 50 μl at […] (1 mg), were given using a 1 ml syringe (Myjector U-100, Terumo) needle 0.5×16 mm (Fine-Ject; Henke-Sass, Wolf GmbH. Injections were provided daily for three subsequent days. Tumour size was measured three times a week using a caliper and expressed as the area of an ellipse [(maximum dimension/2)×(minimum dimension/2)]. Animals were terminated when the tumor exceeded 400 mm^2.
Single-cell suspensions were prepared from fresh tumour tissue at different time points during the week after LTX-315 treatment. Tumours were gently minced with a razor blade and cut into small pieces (4 mm^2). Tumour tissue was incubated with Liberase TM (Thermolysin Medium; Roche Diagnostics) at a concentration of 0.18 Wünsch units/ml in 10 ml MEM media (Sigma-Aldrich) at 37° C. for 60 min with gentle agitation. The enzymatic digestion was terminated by addition of 2 ml 4° C. FCS (Invitrogen, Thermo Fischer). The cell suspension was filtered through a […] mesh (Cell Strainer; BD), washed in PBS and cells were then directly used for flow cytometric staining.
The mouse monoclonal antibodies against CD4 ([…]) and CD8 ([…]) were isolated from culture supernatants from hybridomas and were kind gifts from the MRC Cellular Immunology Unit, Oxford, UK. They were conjugated at IMB according to standard protocols. Fluorochrome-conjugated mAbs against CD3 (G4.18) was obtained from BD Biosciences, including PerCP Streptavidin. A four-color panel consisting of reagents in FITC/AI488, PE, PerCP Streptavidin and AI647 was applied and analyzed on a FACS Calibur (BD) equipped with the CellQuest software (BD). Dot plot and histogram gates were set using isotype control antibodies.

| Molecule | tumour regression / remission [1] | effect on mitochondrial membrane [2] | ATP in the supernatant [3] | TCR Template Molecules ([4]; Blood) | TCRs (T cell estimate) per nucleated cell (%) ([4]; Blood) | Unique TCRs ([4]; Blood) | TCR Template Molecules ([4]; Tissue (tumour)) | percentage of T cells ([5]; primary treated lesion) | CD8+ cells within the CD3+ T cell population ([5]; primary tumor of treated rats) | CD8+ cells within the CD3+ T cell population ([5]; secondary tumor of treated rats) | increase of percentage of T cells compared to untreated rats ([5]; secondary tumor tissue) | percentage of T cells ([5]; secondary tumor tissue) |
| --- | --- | --- | --- | --- | --- | --- | --- | --- | --- | --- | --- | --- |
| Cl.Cl.NCCNC(=O)C(CN)(CCCc1ccccc1)CCCc1ccccc1 [LTX-401] | complete and long-lasting remission; also recorded: complete regression |  |  |  |  |  |  |  |  |  |  |  |
| K-K-W-W-K-K-W-Dip-K-NH2 (KKWWKKW[Dip]K-NH2) [LTX-315] |  | disintegration of the mitochondrial membrane | detected in the supernatant as early as after 5 minutes of treatment | 135,283 | 17.4% | 116,120 | 12,331 | 28.35±11.78% | 62.77±13.3 | 45.8±5.4 | 3 fold | 39.83±17.4% |
